Laboratory results published in ChEMBL document CHEMBL3769352, “Design, synthesis, and testing of an isoquinoline-3-carboxylic-based novel anti-tumor lead” (Bioorg Med Chem Lett, 2015).

Key:
KB = experiment: Cytotoxicity against human KB cells after 48 hrs by MTT assay; type: functional, cell-based
HeLa = experiment: Cytotoxicity against human HeLa cells after 48 hrs by MTT assay; type: functional, cell-based
Mus musculus [1] = experiment: Toxicity in Swiss mouse allografted with mouse S180 cells assessed as effect on kidney to body weight ratio at 2 umol/kg, sc administered every day for 12 days measured on fourteenth day; type: organism-based, CCRF S-180; details: in vivo, 288 h
Mus musculus [2] = experiment: Toxicity in Swiss mouse allografted with mouse S180 cells assessed as body weight at 2 umol/kg, sc administered every day for 12 days measured every day during compound administration; type: organism-based, CCRF S-180; details: in vivo, 288 h
A2780 = experiment: Cytotoxicity against human A2780 cells after 48 hrs by MTT assay; type: functional, cell-based; details: A2780, 48 h
CCRF S-180 [3] = experiment: Antitumor activity against mouse S180 cells allografted in Swiss mouse assessed as tumour weight at 8 umol/kg, sc administered every day for 12 days measured on fourteenth day (reference value: 1.662 +/- 0.355 g); type: functional
Mus musculus [4] = experiment: Toxicity in Swiss mouse allografted with mouse S180 cells assessed as effect on brain to body weight ratio at 2 umol/kg, sc administered every day for 12 days measured on fourteenth day; type: organism-based, CCRF S-180; details: in vivo, 288 h
MCF7 = experiment: Cytotoxicity against human MCF7 cells after 48 hrs by MTT assay; type: functional, cell-based; details: MCF7, 48 h
Mus musculus [5] = experiment: Toxicity in Swiss mouse allografted with mouse S180 cells assessed as effect on liver to body weight ratio at 2 umol/kg, sc administered every day for 12 days measured on fourteenth day; type: organism-based, CCRF S-180; details: in vivo, 288 h
HepG2 = experiment: Cytotoxicity against human HepG2 cells after 48 hrs by MTT assay; type: functional, cell-based; details: HepG2, 48 h
Mus musculus [6] = experiment: Toxicity in Swiss mouse allografted with mouse S180 cells assessed as effect on spleen to body weight ratio at 2 umol/kg, sc administered every day for 12 days measured on fourteenth day; type: organism-based, CCRF S-180; details: in vivo, 288 h
Mus musculus [7] = experiment: Toxicity in Swiss mouse allografted with mouse S180 cells assessed as effect on heart to body weight ratio at 2 umol/kg, sc administered every day for 12 days measured on fourteenth day; type: organism-based, CCRF S-180; details: in vivo, 288 h
[8] = Cytotoxicity against human Bel7402 cells after 48 hrs by MTT assay; type: functional, cell-based; details: Bel-7402, 48 h
Mus musculus [9] = experiment: Toxicity in Swiss mouse allografted with mouse S180 cells assessed as spleen weight index at 2 umol/kg, sc administered every day for 12 days measured on fourteenth day; type: organism-based, CCRF S-180; details: in vivo, 288 h
Mus musculus [10] = experiment: Toxicity in Swiss mouse allografted with mouse S180 cells assessed as effect on heart to body weight ratio at 8 umol/kg, sc administered every day for 12 days measured on fourteenth day; type: organism-based, CCRF S-180; details: in vivo, 288 h
CCRF S-180 [11] = experiment: Antitumor activity against mouse S180 cells allografted in Swiss mouse assessed as tumour weight at 2 umol/kg, sc administered every day for 12 days measured on fourteenth day (reference value: 1.662 +/- 0.355 g); type: functional
Mus musculus [12] = experiment: Toxicity in Swiss mouse allografted with mouse S180 cells assessed as effect on body weight at 8 umol/kg, sc administered every day for 12 days measured every day during compound administration; type: organism-based, CCRF S-180; details: in vivo, 288 h
Mus musculus [13] = experiment: Toxicity in Swiss mouse allografted with mouse S180 cells assessed as effect on spleen to body weight ratio at 8 umol/kg, sc administered every day for 12 days measured on fourteenth day; type: organism-based, CCRF S-180; details: in vivo, 288 h
Mus musculus [14] = experiment: Toxicity in Swiss mouse allografted with mouse S180 cells assessed as effect on brain to body weight ratio at 8 umol/kg, sc administered every day for 12 days measured on fourteenth day; type: organism-based, CCRF S-180; details: in vivo, 288 h
Mus musculus [15] = experiment: Toxicity in Swiss mouse allografted with mouse S180 cells assessed as effect on liver to body weight ratio at 8 umol/kg, sc administered every day for 12 days measured on fourteenth day; type: organism-based, CCRF S-180; details: in vivo, 288 h
Mus musculus [16] = experiment: Toxicity in Swiss mouse allografted with mouse S180 cells assessed as spleen weight index at 8 umol/kg, sc administered every day for 12 days measured on fourteenth day; type: organism-based, CCRF S-180; details: in vivo, 288 h
Mus musculus [17] = experiment: Toxicity in Swiss mouse allografted with mouse S180 cells assessed as effect on kidney to body weight ratio at 8 umol/kg, sc administered every day for 12 days measured on fourteenth day; type: organism-based, CCRF S-180; details: in vivo, 288 h
Mus musculus [18] = experiment: Toxicity in Swiss mouse allografted with mouse S180 cells assessed as reduction in liver to body weight ratio at 2 umol/kg, sc administered every day for 12 days measured on fourteenth day; type: organism-based, CCRF S-180; details: in vivo, 288 h
Mus musculus [19] = experiment: Toxicity in Swiss mouse allografted with mouse S180 cells assessed as reduction in spleen weight index at 2 umol/kg, sc administered every day for 12 days measured on fourteenth day; type: organism-based, CCRF S-180; details: in vivo, 288 h

Structure (SMILES)	IC50 (KB) [µM]	IC50 (HeLa) [µM]	Activity (Mus musculus [2]) [g]	IC50 (A2780) [µM]	IC50 (MCF7) [µM]	IC50 (HepG2) [µM]	IC50 [8] [µM]	Activity (CCRF S-180 [11]) [g]	further results
O=C(O)c1cc2ccccc2cn1	> 100	> 100	33	> 100	> 100	> 100	> 100		Activity (Mus musculus [1]): Non-toxic; Activity (CCRF S-180 [3]): 1.104 g; Activity (Mus musculus [4]): Non-toxic; Activity (Mus musculus [5]): Non-toxic; Activity (Mus musculus [6]): Non-toxic; Activity (Mus musculus [7]): Non-toxic; Activity (Mus musculus [9]): Non-toxic
O=C(NCCN(CCNC(=O)c1cc2ccccc2cn1)CCNC(=O)c1cc2ccccc2cn1)c1ccccc1	75.2	33.5		33.6	25	38.4	87.4	0.952	Activity (Mus musculus [10]): Non-toxic; Activity (Mus musculus [12]): 33 g; Activity (Mus musculus [13]): Non-toxic; Activity (Mus musculus [14]): Non-toxic; Activity (Mus musculus [15]): Non-toxic; Activity (Mus musculus [16]): Non-toxic; Activity (Mus musculus [17]): Non-toxic
COc1cccc2c1C(=O)c1c(O)c3c(c(O)c1C2=O)C[C@@](O)(C(=O)CO)C[C@@H]3O[C@H]1C[C@H](N)[C@H](O)[C@H](C)O1 [DOXORUBICIN]	0.13	0.6	24	0.27	0.16	0.58	1.36	0.401	Activity (Mus musculus [18]): Toxic; Activity (Mus musculus [19]): Toxic
